US20210205192A1, “ANTIMICROBIAL MIXTURE CONTAINING 4-(3-ETHOXY-4-HYDROXYPHENYL)BUTAN-2-ONE AND A DIOL, AND COSMETIC COMPOSITION CONTAINING SAME” (L'OREAL, priority 2017, published 2021)
Each block holds one molecule with its values, some of them ahead of it.

What was measured:
[1] = system: Aspergillus niger ATCC 6275; experiment: Synergistic antimicrobial activity as MIC (96-well microplate, optical density at 620 nm), Aspergillus niger; format: cell-based
From the text: (§1) FIC Index=(MICa with B/MICa)+(MICb with A/MICb)
(§2) with: • MICa with B: minimum concentration of product A in the combination A+B which makes it possible to obtain an inhibitory effect • MICb with A: minimum concentration of product B in the combination A+B which makes it possible to obtain an inhibitory effect. • MICa: minimum inhibitory concentration of product A alone. • MICb: minimum inhibitory concentration of product B alone.
(§3) As regards the combinations tested, MICa with b and MICb with a are the respective concentrations of A and of B in the combinations which make it possible to obtain a microbial growth percentage of less than or equal to 20%.
(§4) When the FIC index value is less than or equal to 1, it is considered that the combination of test compounds has a synergistic effect.
The microbial strain Aspergillus niger ATCC 6275, and a double-concentration Sabouraud broth liquid culture medium supplemented with polyoxyethylenated (20 OE) sorbitan monopalmitate (Tween 40 from Croda) and Phytagel© BioReagent were used (i.e. a mixture of 5 g of Phytagel+0.6 g Tween 40+60 g of Sabouraud broth).
(§5) A 96-well microplate and an […] of 32.5° C. are used.
(§6) The incubation time of the microplate is: • from 18 to 24 h under aerobic conditions for Candida albicans ATCC 10231; • from 24 to 30 h under aerobic conditions for Aspergillus niger ATCC 6275.
(§7) A 10% (weight/volume) stock solution was prepared by mixing 1 g of compound in 9 ml of aqueous 1% o agar solution. Successive dilutions were made with the 1% o agar solution. • Test of compounds A and B alone
(§8) 50 μl of each of the daughter solutions obtained containing compound A or B are added to the microplate wells. 100 μl of Sabouraud liquid nutrient broth inoculated with the strain Aspergillus niger and 50 μl of aqueous 1% o agar solution are also added thereto. • Test of compounds A and B as a mixture
(§9) 50 μl of each of the daughter solutions obtained containing compound A and 50 μl of each of the daughter solutions obtained containing compound B are added to the microplate wells. 100 μl of Sabouraud liquid nutrient broth inoculated at double concentration with the strain Aspergillus niger are also added thereto.
A positive microbial growth control was also prepared. The positive microbial growth control corresponds to a mixture of 100 μl of aqueous 1% o agar solution with 100 μl of Sabouraud liquid nutrient broth inoculated at double concentration with the strain Aspergillus niger in the absence of compounds A and B.
An absorbance control was performed in parallel on compounds A and B alone. This control corresponds to 100 μl of double concentration sterile Sabouraud liquid nutrient broth+100 μl of double concentration compound A or B.
In the three cases (absorbance control, growth control and test), the final volume present in each of the microplate wells is 200 μl.
In the two cases (test and control), the inoculum represents the concentration of the Aspergillus niger strain present in the final volume of the wells (200 μl) and is between 2 and 6×10^5 cfu/ml of Aspergillus niger.

[2] = system: Candida albicans ATCC 10231; experiment: Synergistic antimicrobial activity as MIC (96-well microplate, optical density at 620 nm), Candida albicans; format: cell-based
From the text: as §1, §2, §3, §4
The microbial strain Candida albicans ATCC 10231 and a double-concentration Sabouraud broth liquid culture medium were used.
as §5, §6, §7, §8, §9
The test as described above (tests, absorbance control and growth control) was performed again to test the combination A and B on the Candida albicans strain.

[3] = Aspergillus niger, growth <= 20%

% MIC of B3 alone [1, 3]: 0.025% | % MIC of B3 alone ([2]; Candida albicans, growth <= 20%): 0.025%
Structure (SMILES): CCCCCCCCC(O)CO (centres unmarked) [B3, 1,2-decanediol]
microbial growth percentage ([1]; 0 A, 0.0125 B3 (weight %)): 42% | microbial growth percentage ([1]; 0 A, 0.025 B3 (weight %)): 10% | microbial growth percentage ([2]; 0 A, 0.0125 B3 (weight %)): 45% | microbial growth percentage ([2]; 0 A, 0.025 B3 (weight %)): 3%

% MIC of A alone ([1]; Aspergillus niger, test series with B1, growth <= 20%): 0.1% | % MIC of A alone ([1]; Aspergillus niger, test series with B3, growth <= 20%): 0.1% | % MIC A ([2]; A alone, Candida albicans, test series with B2, growth <= 20%): 0.2% | % MIC of A alone ([2]; Candida albicans, test series with B3, growth <= 20%): 0.2%
Structure (SMILES): CCOc1cc(CCC(C)=O)ccc1O [A, 4-(3-ethoxy-4-hydroxyphenyl)butan-2-one]
microbial growth percentage ([1]; 0.025 A, 0 B1 (weight %)): 42% | microbial growth percentage ([1]; 0.025 A, 0 B3 (weight %)): 39% | microbial growth percentage ([1]; 0.05 A, 0 B1 (weight %)): 25% | microbial growth percentage ([1]; 0.05 A, 0 B3 (weight %)): 32% | microbial growth percentage ([1]; 0.1 A, 0 B1 (weight %)): 10% | microbial growth percentage ([1]; 0.1 A, 0 B3 (weight %)): 12% | microbial growth percentage ([2]; 0.025 A, 0 B2 (weight %)): 81% | microbial growth percentage ([2]; 0.025 A, 0 B3 (weight %)): 78% | microbial growth percentage ([2]; 0.05 A, 0 B2 (weight %)): 60% | microbial growth percentage ([2]; 0.05 A, 0 B3 (weight %)): 61% | microbial growth percentage ([2]; 0.1 A, 0 B2 (weight %)): 27% | microbial growth percentage ([2]; 0.1 A, 0 B3 (weight %)): 25% | microbial growth percentage ([2]; 0.2 A, 0 B2 (weight %)): 4% | microbial growth percentage ([2]; 0.2 A, 0 B3 (weight %)): 3%

Structure (SMILES): OCCCO [B1, 1,3-propanediol]
microbial growth percentage ([1]; 0 A, 0.125 B1 (weight %)): 77% | microbial growth percentage ([1]; 0 A, 0.25 B1 (weight %)): 62% | microbial growth percentage ([1]; 0 A, 0.5 B1 (weight %)): 50% | microbial growth percentage ([1]; 0 A, 1 B1 (weight %)): 36% | microbial growth percentage ([1]; 0 A, 2 B1 (weight %)): 11% | % MIC of B1 alone [1, 3]: 2%

MIC B2 ([2]; B2 alone, Candida albicans, growth <= 20%): 0.2%
Structure (SMILES): CCCCCCC(O)CO (centres unmarked) [B2, 1,2-octanediol]
microbial growth percentage ([2]; 0 A, 0.025 B2 (weight %)): 79% | microbial growth percentage ([2]; 0 A, 0.05 B2 (weight %)): 60% | microbial growth percentage ([2]; 0 A, 0.1 B2 (weight %)): 23% | microbial growth percentage ([2]; 0 A, 0.2 B2 (weight %)): 0%
